# From US20250332326A1, “METHOD OF GENERATING 3D POROUS HYBRID PROTEIN NANOSCAFFOLD” (Rutgers, The State University of New Jersey, priority 2024, published 2025)
# What was measured:
# [1] = tested on: rat nucleotomy disc injury model; test: Rat nucleotomy disc injury model, histological and MRI analysis 6 WPI; format: in vivo
# Description: Rats were anesthetized by injection of 2 mg/kg midazolam and 0.15 mg/kg medetomidine and butorphanol tartrate. After rats reached deep anesthesia, which was confirmed by tail pinching, posterior midline incision was performed at the Co6-7 level to expose the intervertebral disc. A no. 11 scalpel was used for the incision of posterior AF and the longitudinal cut was around 2 mm. […] After the nucleotomy, nanoscaffolds were pushed into the empty space using a micropipette tip. As controls, PBS was injected into the empty space after the nucleotomy. A heating pad was provided underneath the rats throughout the procedure and the rats were observed during recovery from the anesthesia.
# MRI was performed on rats 6 WPI using a Bruker BioSpec (9.4 T) MRI scanner in order to investigate the regeneration of discs after the nucleotomy, which can be quantified by the signal intensities and water content through T2-weighted MRI. In the MRI study, time-to-repetition was set as 5,000 ms; time-toecho was set to 30 ms; and coronal axial planes were imaged for the rat discs. MRI index and signal intensities were used for the calculation of degree of damage of coccygeal disc tissues. Region of interest (ROI) was defined as the higher intensity area in the coronal plane and ROI was quantified using Fiji (Image J). MRI index was measured with blind tests by two independent observers.
# At 6 WPI, animals were all sacrificed and disc tissues were harvested and fixed using 10% buffered formalin for one week. Decalcification was then performed using Rapid Cal Immuno™ (BBC biochemical) for another 2 weeks. Disc tissues were then paraffin-embedded and sectioned in the coronal directions with a Leica microtome. After dewaxing, rehydration, and permeabilization by methanol, H&E, immunohistofluorescent, and Safranin-O staining were performed on different sections. For H&E staining, tissue sections were stained in a solution with Mayer's Hematoxylin for 5 minutes then washed with water and counterstained in alcoholic solution of eosin for another minute without rinsing. […] For the Safranin-O staining, tissues were stained for 10 minutes by Weigert's iron hematoxylin solution followed by extensive washing with water. Then fast green solution was used for the second staining for 5 minutes followed by brief rinsing with 1% acetic acid solution and then stained with 0.1% Safranin-O solution. Afterwards, tissues were dehydrated and cleared using identical protocol as mentioned in the H&E staining. Safranin-O staining score was based on an 8-point scale previous used for IVD tissue analysis, and if no degenerative features were found a zero score was assigned. For the immunohistofluorescent and immunohistochemistry staining of inflammatory (e.g., MMP13 and IL1β), ECM (aggrecan, Collagen II) and pain (e.g., CGRP) markers, disc tissues with fixation and decalfication were first dewaxed, sectioned into 10 μm sections, and stained with primary antibodies followed by 24 hours incubation. After washing with PBS containing 0.1% Tween 20, the secondary antibodies were added and incubated for 2 hours. Finally, the nucleus was stained with DAPI for 15 minutes. Sections were then examined under a fluorescent or colorimetric microscope with a Zeiss 880 confocal microscope and Olympus microscope, respectively. ImageJ was used for quantification in an automatic manner.
# [2] = tested on: LPS-stimulated THP-1-derived macrophages; test: qRT-PCR of inflammatory genes in LPS-stimulated macrophages co-cultured with scaffolds; format: cell-based, human; settings: Transwell system, 50, 100, 200 μg/mL BETi loading
# Description: THP-1 monocytes were purchased from ATCC® and cultured using standard protocol provided by the vendor (10% FBS in 1640 RPMI basal media supplemented with […] beta-mercaptoethanol). Media was refreshed every other day. THP-1 monocytes were cultured at a density of 100,000 to 500,000 cells per mL. When they proliferate above the density, cells were centrifuged down for media change. To convert suspension culture of THP-1 monocytes into adherent macrophages, 200 ng/ml of phorbol myristate acetate (PMA) was added into the media then split into 24 well plates at designated density (100,000 per well). PMA was treated for 1-3 days then fresh growth media without PMA was added. To stimulate the macrophages, 1,000 ng/mL lipopolysaccharide (LPS, Sigma Aldrich) was included in the media for 4 hours. Macrophages were converted from THP-1 monocytes through PMA activation. Then different scaffold conditions, including chitosan nanoscaffold, 3D-PHP nanoscaffold, and control (PBS only), as well as 3D-PHP nanoscaffold loaded with low (50 μg), medium (100 μg) and high (200 μg) dosages of BETi (JQ-1 from Tocris) drugs were added into the macrophage cultured followed by the addition of 1 μg/mL LPS for stimulation of macrophages. […] Cells were lysed with Trizol®, and then the lysates were stored at −80° C. until ready for use. […]
compound,measurement,setting,value
"Cc1sc2c(c1C)C(c1ccc(Cl)cc1)=N[C@@H](CC(=O)OC(C)(C)C)c1nnc(C)n1-2 [BETi, JQ1]","IL-1β expression (positive area, immunostaining)",[1],did not induce a significant reduction
same,MMP-13 levels (immunostaining),[1],did not suppress
same,"CGRP signals (pain marker, positive area ratio)",[1]; compared to injury alone,considerably less reduction
same,"disc integrity / healthy disc tissue (H&E staining, MRI index)",[1]; implanted or injected on day of nucleotomy,slightly improved the restoration of the disc structure
same,up-regulation of Collagen II and aggrecan,[1]; result in words,did not result in noticeable up-regulation
same,inflammatory responses (pro- and anti-inflammatory gene expression),[2],significantly lowered the inflammatory responses
